Values of other authors as cited in US10052352B2, “Therapeutic application of parenteral krill oil” (STABLE SOLUTIONS LLC, priority 2011, dated 2018).

Settings: free acid

water solubility: highly water insoluble
Structure (SMILES): O=C(c1ccccc1)c1ccc2n1CCC2C(=O)O (stereo not shown) [ketorolac]
